{"source": "patent US20240182513A1", "about": "“SEPARATION OF METAL IONS FROM A SAMPLE USING GLYCOLIPIDS” (ARIZONA BOARD OF REGENTS ON BEHALF OF THE UNIVERSITY OF …, priority 2021, published 2024)", "key": {"[1]": {"assay": "Ion flotation of uranium from Monument Valley groundwater with rhamnolipid collectors", "text": "Groundwater Collection and Analysis: The Monument Valley site is in Cane Valley, AZ, which is in northeastern Arizona. Groundwater was collected from monitoring well 662, which is down gradient of the source zone within the boundaries of the uranium groundwater plume. Samples were collected using dedicated bladder pumps and a QED Micropurge Controller. Groundwater was collected into a 50 L LDPE carboy (Thermo Scientific Nalgene) after the groundwater's pH and dissolved oxygen levels from the pump stabilized. The solution was stored as received, on the lab bench at ambient temperature until use.\nFor cation and anion analysis, groundwater was filtered ([…]) then diluted with 2% trace metals grade nitric acid (Fisher Scientific, Waltham, MA) in metal-free polypropylene 15 mL centrifuge tubes (VWR, Radnor, PA). Cations were analyzed using an Elan DRC-II inductively coupled plasma mass spectrometer (ICP-MS). Anions (F^−1, Cl^−1, Br^−1, NO2^−1, NO3^−1, […], and SO4^−2) were analyzed by using a Thermo Scientific Dionex ICS-6000 high-performance ion chromatography system. Data generated in this geochemical analysis were used to model uranium speciation using Visual MINTEQ 3.1. Only major solution constituents—those greater than 10 μg L^−1 for metals or 5 μmol L^−1 for anions—were included in the experiment, and carbonates were excluded because they are stripped from solution when nitrogen is sparged in the flotation process.\nChemicals: Both biosynthetic and synthetic monorhamnolipid collectors were tested for flotation efficiency. Biosynthetic monorhamnolipid tail lengths ‘m’ and ‘n’ range from 4 to 12 due to natural congener variation. Synthetic monorhamnolipids (Rha-C10-C10, Rha-C12-C12, or Rha-C14-C14) were synthesized with equal length tails where ‘m’=‘n’=6-14. The production and purification of biosynthetic monorhamnolipids (bio-mRL) from Pseudomonas aeruginosa ATCC 9027 has been previously described by Hogan et al., J. Hazard. Mater. 2017, 340, pp. 171-178. This organism exclusively produces monorhamnolipids—rhamnolipids with a single rhamnose sugar in the hydrophilic moiety of the molecule—as a congener mixture with varying hydrophobic tail lengths, in which the rhamnosyl-β-hydroxydecanoyl-β-hydroxydecanoate (C10-C10) dominates at 75-85 wt %. A molecular weight of 504 g mol^−1 (based on the C10-C10 structure) was used to estimate the bio-mRL concentration. Synthetic monorhamnolipids with decyl (Rha-C10-C10), dodecyl (Rha-C12-C12), and tetradecyl (Rha-C14-C14) hydrophobic moieties were prepared for comparative experiment. The molecular weights of the synthetic monorhamnolipids are 504.7, 560.8, and 616.9, respectively. All solutions were made using nanopure water (≥18 MΩ-cm). pH was adjusted with HNO3 and NaOH. […]"}, "[2]": {"assay": "Example 2.1 rhamnolipid precipitation, filtration, centrifugation: magnesium", "conditions": "for Treatment 2: Rhamnolipid and Filtration Cf / Treatment 3: Rhamnolipid and Centrifugation Cc / Treatment 1: Rhamnolipid Only Cr: magnesium concentration after treatment", "procedure": "Structural variants of synthetic glycolipids were used to show the effect of the number and length of the hydrophobic tail(s) on rhamnolipid as a chemical precipitant. […] Solutions (10 mM) were made using nanopure water (≥18 MΩ-cm) then adjusted to a pH of 6.9±0.05 with HNO3 and NaOH. These solutions were made in advance and stored in the cold room for up to one month. They were brought to room temperature before each experiment.\nThree metals were tested for binding with rhamnolipid. Lead as […] (Fisher Scientific, Waltham, MA, 99% purity), was chosen to represent a metal with high rhamnolipid-metal conditional stability constant; lanthanum as La(NO3)3 6(H2O) (Sigma-Aldrich, St. Louis, MO, 99.99% purity) was chosen as a representative REE; and magnesium as Mg(NO3)2 6(H2O) (Sigma-Aldrich, St. Louis, MO, 99% purity) was chosen to represent a metal with a low rhamnolipid-metal conditional stability constant (Hogan et al., 2017). Metal solutions (5 mM) were made using nanopure water (≥18 MΩ-cm) in 20 ml glass scintillation vials. All solutions were used within 15 min to ensure minimal adsorption to the glass vial.\nThree glycolipid-based treatments were evaluated to remove metal from solution: (1) the addition of glycolipid with no further treatment (gravitational precipitation), (2) the addition of a glycolipid followed by filtration or (3) the addition of a glycolipid followed by centrifugation. Each metal (Pb, La, and Mg) was evaluated separately with each of the glycolipid structures. For each experiment, a metal solution was mixed with a glycolipid solution in a 1.7 ml reaction tube at varying molar ratios of glycolipid to metal: 0:1 (glycolipid-free control), 2:1, 5:1, and 10:1. The reactions were mixed in the order of nanopure water (≥18 MΩ-cm), glycolipid solution (10 mM), then metal solution (5 mM). The metal and glycolipid solutions were continuously stirred as they were aliquoted into the reaction tubes. The experiment was performed in triplicate.\nThe reaction tubes were mixed overnight (16 to 24 h) and then three samples were collected from each tube to measure the effect of each of the three treatments: a glycolipid only treatment sample, a filtration treatment sample, and a centrifugation treatment sample. Briefly, for the glycolipid only treatment samples all tubes were vortexed for approximately 5 sec immediately before removing 0.1 ml into a dilution tube of 2% trace metal grade nitric acid (12 to 14 ml) to minimize the settling of particles. For the filtration samples each reaction tube was vortexed for 5 sec and then a 0.6 ml aliquot was collected with a 1 ml syringe. A GHP acrodisc disk filter (hydrophilic polypropylene membrane, 0.45 μm pore size, 25 mm disc diameter) from Pall Life Sciences (Port Washington, New York) was then placed onto the end of the syringe and the solution was pushed through the filter. The void space in the disk filter holds approximately 0.5 ml, therefore around 0.1 ml of filtrate was collected into a dilution tube. For the centrifugation sample, the remaining solution was centrifuged at 10,000 RCF for 15 min. Approximately 0.1 ml of the supernatant was aliquoted into a dilution tube. Following collection, all samples were taken for metal analysis using ICP-MS."}}, "data": [{"smiles": "CCCCCCCCCC(CC(=O)O)OC(=O)CC(CCCCCCCCC)OC1O[C@@H](C)[C@H](O)[C@@H](O)[C@H]1O", "note": "(stereo partly drawn) [Rha C12C12, rhamnosyl-β-hydroxydodecanoyl-62-hydroxydodecanoate]", "values": [{"measurement": "uranium removal", "setting": "[1]; native pH 8", "result": "did not collect metals"}, {"measurement": "uranium removal percentage", "setting": "[1]; pH 6.5", "result": 6.6, "unit": "%"}, {"measurement": "uranium removal", "setting": "[1]; pH 7", "result": "No significant amount of uranium was removed"}, {"measurement": "Treatment 2: Rhamnolipid and Filtration Cf", "setting": "[2]; molar ratio 2 to 1", "result": "0.182 ± 0.055", "unit": "mmol/L"}, {"measurement": "Treatment 3: Rhamnolipid and Centrifugation Cc", "setting": "[2]; molar ratio 2 to 1", "result": "0.276 ± 0.005", "unit": "mmol/L"}, {"measurement": "Treatment 1: Rhamnolipid Only Cr", "setting": "[2]; molar ratio 5 to 1", "result": "0.285 ± 0.005", "unit": "mmol/L"}, {"measurement": "Treatment 2: Rhamnolipid and Filtration Cf", "setting": "[2]; molar ratio 5 to 1", "result": "0.135 ± 0.074", "unit": "mmol/L"}, {"measurement": "Treatment 3: Rhamnolipid and Centrifugation Cc", "setting": "[2]; molar ratio 5 to 1", "result": "0.273 ± 0.014", "unit": "mmol/L"}, {"measurement": "Treatment 1: Rhamnolipid Only Cr", "setting": "[2]; molar ratio 10 to 1", "result": "0.285 ± 0.012", "unit": "mmol/L"}, {"measurement": "Treatment 2: Rhamnolipid and Filtration Cf", "setting": "[2]; molar ratio 10 to 1", "result": "0.008 ± 0.004", "unit": "mmol/L"}, {"measurement": "Treatment 3: Rhamnolipid and Centrifugation Cc", "setting": "[2]; molar ratio 10 to 1", "result": "0.266 ± 0.012", "unit": "mmol/L"}, {"measurement": "Treatment 1: Rhamnolipid Only Cr", "setting": "[2]; molar ratio rhamnolipid:magnesium 2 to 1", "result": "0.281 ± 0.002", "unit": "mmol/L"}, {"measurement": "Treatment 2: Rhamnolipid and Filtration (Rf) efficiency of removal", "setting": "[2]; magnesium, molar ratio 2 to 1", "result": "(32.1%)"}, {"measurement": "Treatment 2: Rhamnolipid and Filtration (Rf) efficiency of removal", "setting": "[2]; magnesium, molar ratio 5 to 1", "result": "(49.4%)"}, {"measurement": "Treatment 2: Rhamnolipid and Filtration (Rf) efficiency of removal", "setting": "[2]; magnesium, molar ratio 10 to 1", "result": "(97.1%)"}, {"measurement": "Treatment 3: Rhamnolipid and Centrifugation (Rc) efficiency of removal", "setting": "[2]; magnesium, molar ratio 10 to 1", "result": "(0.4%)"}]}]}
